Tested on: MPNST complex spheroid with HUVEC/MSC, growth, % test/control
Test: Anticancer human tumor MPNST cell line growth inhibition [Asc];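 further: compounds left on spheroids for seven days before reading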
Details: for IC50: curve of first compound; for viability, T/C: stronger effect = lower value
Procedure: Multicellular complex tumor spheroid response to apoptosis pathway targeting inhibitors Alrizomadlin, Pelcitoclax, and Dasminapant in combination with a variety of drugs and investigational agents in selected tumor cell lines
The MDM2 inhibitor alrizomadlin, the Bcl-2/Bcl-xL inhibitor pelcitoclax, and the IAPs inhibitor dasminapant were evaluated both individually and in combination with standard of care and investigational anticancer small molecules within a complex spheroid model of solid tumors. . Complex spheroids include a stromal component modeled by human endothelial cells (HUVEC) and fibroblasts modeled by human mesenchymal stem cells (MSCs). The concentration ranges selected for each drug and investigational agent were based upon clinically achievable concentrations if the clinical Cmax of the agent was known.
Compounds. The drugs and investigational agents: alrizomadlin (APG-115; NSC831270), pelcitoclax (APG-1252; NSC835773), dasminapant (APG-1387;NSC834197), TAK-243 (NSC785004), copanlisib (NSC809693), olaparib (NSC753686), talazoparib (NSC767125), cobimetinib (NSC 768068), eltanexor (KPT-8602, NSC 794443), abemaciclib (NSC 768073), sotorasib (NSC818433), adagrasib (NSC 831453), MRTX-1133 (NSC 836407), Iadademestat (ORY1001, NSC 806812), and RMC-4630 (NSC839698), were obtained from the NCI Developmental Therapeutics Program Chemical Repository. The FDA-approved anticancer drug set is available from the Developmental Therapeutics Program at https://dtp.cancer.gov/organization/dscb/obtaining/available plates.htm. […] The stock solutions were prepared in dimethyl sulfoxide (DMSO, Sigma-Aldrich, St. Louis, MO, cat. D2650) at 800-fold the tested concentration and stored at -70 degrees C prior to their use. All drugs and investigational agents were tested over a range starting from a high concentration at or near the clinical Cmax and decreasing in half-log increments. If the clinical Cmax for an agent had not been determined, the highest concentration tested was 10 microM.
The patient-derived cancer (PDC) cell lines include five colon adenocarcinomas: 186277-243-T-J2-PDC, 616215-338-R-J1-PDC, 439559-082-T-J2-PDC, 463943-066-T-J2-PDC, and 519858-162-T-J1-PDC; three pancreatic carcinomas: 323965-272-R-J2-PDC, 521955-158-R6-J3-PDC, and 521955-158-R2-J5-PDC; two uterine sarcomas: 327498-152-R-J2-PDC and 993429-296-R-J1-PDC; two rhabdomyosarcomas: 755483-174-R-J1-PDC and 772245-204-R-J1-PDC; two soft tissue sarcomas: 126254-015-R-J1-PDC and 494315-158-R-J1-PDC; two malignant fibrous histiocytomas: 317291-083-R-J1-PDC and 596521-263-R-J1-PDC; two breast carcinomas: 171881-019-R-J1-PDC and 885512-296-R-J2-PDC; and one ovarian carcinoma: 6556581-035-R-J-PDC were obtained from the NCI PDMR, (https://pdmr.cancer.gov). The established cell lines HSSY-2 synovial sarcoma (RRID:CVCL 8719), SYO-1 synovial sarcoma (RRID:CVCL_7146), MPNST malignant peripheral neural sheath tumor were obtained from the Sloan Kettering Institute. The following established cell lines were purchased from the American Type Culture Collection (ATCC, Manassas, VA), Sor the received from the NCI repository:, PANC-1 pancreatic carcinoma (CRL-1469, RRID:CVCL_0480), OVCAR-5 ovarian carcinoma (RRID:CVCL_1628), OVCAR-8 ovarian carcinoma (RRID:CVCL_1629), , MCF-7 breast carcinoma (CRL-12584, RRID:CVCL_0031), MDA-MB-231 breast carcinoma (CRL-12532, RRID:CVCL_0062), NCI-H1876 small cell lung carcinoma (CRL-5902, RRID:CVCL_1503), NCI-H510A small cell lung carcinoma (HTB-184, RRID:CVCL_1565), NCI-H1417 (CRL-5869, RRID:CVCL_1469), and NCI-H196 small cell lung carcinoma (CRL-5823, RRID:CVCL_1509). Dr. Peter Houghton (Greehey Children's Cancer Research Institute, University of Texas Health Science Center, San Antonio, TX) provided Rh-18 rhabdomyosarcoma (RRID:CVCL_1659). Pooled donor human umbilical vein endothelial cells (HUVEC, Lonza, cat. CC-2519) and human mesenchymal stem cells (hMSC, Lonza, cat. PT-2501) were purchased from Lonza (Walkersville, MD).
Cell Culture. […]

`O=C(c1ccc(F)c(F)c1Nc1ccc(I)cc1F)N1CC(O)([C@@H]2CCCCN2)C1` + CCN1C(C(=O)NC23CCC(C(=O)O)(CC2)CC3)C(c2cccc(Cl)c2F)C2(C(=O)Nc3cc(Cl)ccc32)C12CCCCC2 showed an IC50 (second compound 0.03 µM) of 467 nM, an IC50 (second compound 0.0949 µM) of 323 nM and an IC50 (second compound 0.3 µM) of 281 nM. For the same molecule, the IC50 (second compound 0.949 µM) was 247 nM, the IC50 (second compound 3 µM) was 139 nM and the viability, T/C (second compound 0.03 µM, first compound 0.00316 µM) was 87.4%. It also gave a viability, T/C (second compound 0.03 µM, first compound 0.01 µM) of 65%, a viability, T/C (second compound 0.03 µM, first compound 0.0316 µM) of 72.2% and a viability, T/C (second compound 0.03 µM, first compound 0.1 µM) of 95.9%. For the same molecule, the viability, T/C (second compound 0.03 µM, first compound 0.316 µM) was 65.9%, the viability, T/C (second compound 0.03 µM, first compound 1 µM) was 18.9% and the viability, T/C (second compound 0.0949 µM, first compound 0.00316 µM) was 95.4%. For the same molecule, the viability, T/C (second compound 0.0949 µM, first compound 0.01 µM) was 78%, the viability, T/C (second compound 0.0949 µM, first compound 0.0316 µM) was 87.6% and the viability, T/C (second compound 0.0949 µM, first compound 0.1 µM) was 84.9%. For the same molecule, the viability, T/C (second compound 0.0949 µM, first compound 0.316 µM) was 50.6%, the viability, T/C (second compound 0.0949 µM, first compound 1 µM) was 18.7% and the viability, T/C (second compound 0.3 µM, first compound 0.00316 µM) was 90.9%. It also gave a viability, T/C (second compound 0.3 µM, first compound 0.01 µM) of 76%, a viability, T/C (second compound 0.3 µM, first compound 0.0316 µM) of 90.9% and a viability, T/C (second compound 0.3 µM, first compound 0.1 µM) of 91.8%. For the same molecule, the viability, T/C (second compound 0.3 µM, first compound 0.316 µM) was 45.7%, the viability, T/C (second compound 0.3 µM, first compound 1 µM) was 17.7% and the viability, T/C (second compound 0.949 µM, first compound 0.00316 µM) was 88.9%. The viability, T/C (second compound 0.949 µM, first compound 0.01 µM) was 93.6%, the viability, T/C (second compound 0.949 µM, first compound 0.0316 µM) was 82.2% and the viability, T/C (second compound 0.949 µM, first compound 0.1 µM) was 81.5%. For the same molecule, the viability, T/C (second compound 0.949 µM, first compound 0.316 µM) was 41.4%, the viability, T/C (second compound 0.949 µM, first compound 1 µM) was 17.3% and the viability, T/C (second compound 3 µM, first compound 0.00316 µM) was 77.4%. For the same molecule, the viability, T/C (second compound 3 µM, first compound 0.01 µM) was 82.9%, the viability, T/C (second compound 3 µM, first compound 0.0316 µM) was 68.3% and the viability, T/C (second compound 3 µM, first compound 0.1 µM) was 58.6%. It also gave a viability, T/C (second compound 3 µM, first compound 0.316 µM) of 32.1% and a viability, T/C (second compound 3 µM, first compound 1 µM) of 10.7%.

From PubChem BioAssay AID1963442 (Molecular Pharmacology Branch, DTP, NCI, 2024)
